Reference: patent US11065226B2, “Combination comprising EP4 antagonist and immune checkpoint inhibitor” (ONO PHARMACEUTICAL CO., LTD., priority 2016, dated 2021)

Assays:
[1] = system: mouse colorectal cancer cell line MC38; assay: Combination therapy with Example 2-2 and anti-mouse PD-1 antibody in allograft model of MC38; type: in vivo; details: female C57BL/6 mice, Example 2-2 3 mg/kg orally twice a day day 8 to 24, anti-mouse PD-1 antibody i.p. 20 mg/kg day 8, 10 mg/kg day 14 and 20
Description: (§1) The effect of the combination therapy with the compound of Example 2-2 and an anti-mouse PD-1 antibody was evaluated in an allograft model of a mouse colorectal cancer cell line, MC38 (Cancer Res. (1975), 35(9), p 2434-9). The MC38 cells were cultured in a DMEM medium containing 10 vol % FBS, 100 units/mL penicillin, and 100 μg/mL streptomycin in a CO2 incubator. On the day of transplantation, the culture supernatant was removed, and then the MC38 cells were washed with PBS and collected. The collected MC38 cells were suspended in PBS and used as transplant cells. Under anesthesia, 1,000,000 transplant cells were subcutaneously transplanted into the right lateral abdominal regions of female C57BL/6 mice. On day 8 after the transplantation, the mice were divided into four groups of a vehicle group, an Example 2-2 compound-single therapy group, an anti-mouse PD-1 antibody-single therapy group, and a combination therapy group (the compound of Example 2-2 and the anti-mouse PD-1 antibody), each containing 10 individuals. […] The tumor volumes (mm^3) were calculated by the following equation from the tumor lengths along the minor axis and the major axis which were measured using a digital caliper. […]

rat EP4 receptor = target: T1, rat EP4 receptor (Rattus norvegicus, UniProt P43114); assay: EP4 antagonistic activity measurement using prostanoid receptor subtype-expressing cells (cAMP, PGE2 10 nM); type: cell-based; details: CHO cells expressing rat EP4 receptor; inhibition of cAMP production by PGE2 10 nM; 30 minutes at room temperature
T1 construct: expressed in transfected cells; host or cells: CHO cells
Description: CHO cells expressing rat EP4 receptor subtypes were prepared according to the methods of Nishigaki et al. (Non-Patent Document 4) and used for experiment. Cultured subconfluent cells were detached and suspended in an assay medium (MEM containing 1 mmol/L IBMX, 1% HSA) in a concentration of 1×10^6 cells/mL. To start the reaction, PGE2 was added to the cell suspension (25 μL) in a final concentration of 10 nmol/L, either alone or as a 25-μL PGE2 solution containing a test compound. After 30 minutes of reaction at room temperature, the amount of cAMP in the cells was quantified according to the method in the descriptions of the cAMP assay kit (CISBIO).
The antagonistic effect (IC50 value) of the test compound was calculated as a value that represents an inhibition rate against a reaction with PGE2 alone at 10 nM, a concentration that produces a submaximal cAMP producing effect.

[2] = system: mouse colorectal cancer cell line MC38; assay: Combination therapy with Example 2-13 and anti-mouse CTLA-4 antibody in allograft model of MC38; type: in vivo; details: female C57BL/6 mice, Example 2-13 5 mg/kg orally twice a day day 7 to 28, anti-mouse CTLA-4 antibody i.p. 10 mg/kg day 7, 10, 14, 17
Description: (§2) The effect of the combination therapy with the compound of Example 2-13 and an anti-mouse CTLA-4 antibody was evaluated in an allograft model of a mouse colorectal cancer cell line, MC38. The MC38 cells were cultured using a DMEM medium containing 10 vol % FBS, 2 mmol/L Glutamax, 100 units/mL penicillin, and 100 μg/mL streptomycin in a CO2 incubator. On the day of transplantation, the culture supernatant was removed, and then the MC38 cells were washed with PBS and collected. The collected MC38 cells were suspended in PBS and used as transplant cells. Under anesthesia, 1,000,000 transplant cells were subcutaneously transplanted into the right lateral abdominal regions of female C57BL/6 mice. On day 7 after the transplantation, the mice were divided into four groups of a vehicle group, an Example 2-13 compound-single therapy group, an anti-mouse CTLA-4 antibody-single therapy group, and a combination therapy group (the compound of Example 2-13 and the anti-mouse CTLA-4 antibody), each containing 15 individuals. […] The tumor volumes (mm^3) were calculated by the following equation from the tumor lengths along the minor axis and the major axis and the tumor height which were measured using a digital caliper. […]

[3] = system: mouse fibrosarcoma cell line SalN; assay: Combination therapy with Example 2-13 and anti-mouse PD-1 antibody in allograft model of SalN; type: in vivo; details: female A/J mice, Example 2-13 5 mg/kg orally twice a day day 7 to 21, anti-mouse PD-1 antibody i.p. 3 mg/kg day 7, 10, 14, 17
Description: as §2, with “PD-1” for “CTLA-4”, “fibrosarcoma” for “colorectal cancer”, “SalN (Cancer Res. (2012), 72(4), p 917-27).” for “MC38.”, “SalN” for “MC38”, “2,000,000” for “1,000,000”, “A/J” for “C57BL/6”

[4] = system: mouse colorectal cancer cell line CT26; assay: Combination therapy with Example 2-13 and anti-mouse PD-1 antibody in allograft model of CT26; type: in vivo; details: female BALB/c mice, Example 2-13 5 mg/kg orally twice a day day 7 to 21, anti-mouse PD-1 antibody i.p. 3 mg/kg day 7, 10, 14, 17
Description: as §2, with “PD-1” for “CTLA-4”, “CT26 (Cancer Res. (2013), 73(12), p3591-603).” for “MC38.”, “CT26” for “MC38”, “RPMI” for “DMEM”, “BALB/c” for “C57BL/6”, “15 to 18” for “15”

[5] = system: mouse colorectal cancer cell line MC38; assay: Combination therapy with Example 2-13 and anti-mouse PD-1 antibody in allograft model of MC38; type: in vivo; details: female C57BL/6 mice
Description: as §1, with “Example 2-13” for “Example 2-2”, “and 100}μg/mL” for “and 100 μg/mL”, “anesthesia, 200,000” for “anesthesia, 1,000,000”, “day 7” for “day 8”

T1 sequence (P43114 whole entry): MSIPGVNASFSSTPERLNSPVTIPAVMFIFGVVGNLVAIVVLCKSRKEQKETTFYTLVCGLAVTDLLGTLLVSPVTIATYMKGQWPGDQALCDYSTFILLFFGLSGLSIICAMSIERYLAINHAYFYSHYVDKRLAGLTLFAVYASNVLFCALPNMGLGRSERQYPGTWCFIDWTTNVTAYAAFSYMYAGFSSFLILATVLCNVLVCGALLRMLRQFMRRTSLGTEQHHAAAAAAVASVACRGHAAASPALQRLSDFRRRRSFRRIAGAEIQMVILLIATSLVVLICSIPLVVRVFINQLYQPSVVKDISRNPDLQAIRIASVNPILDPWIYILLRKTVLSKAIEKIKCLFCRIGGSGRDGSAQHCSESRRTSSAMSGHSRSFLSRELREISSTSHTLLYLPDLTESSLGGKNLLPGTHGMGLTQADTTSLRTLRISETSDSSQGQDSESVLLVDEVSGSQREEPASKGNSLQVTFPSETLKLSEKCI

COCCNC(=O)c1ccc2c(c1)[C@]1(CCO2)C[C@H]1C(=O)Nc1cc(C#N)ccc1CCCC(=O)O [Example 2-2]
tumor growth (tumor volume, FIG. 2) [1]: inhibited the tumor growth alone

Cn1cc(NC(=O)c2ccc3c(c2)[C@]2(CCO3)C[C@H]2C(=O)Nc2cc(C#N)ccc2CCCC(=O)O)cn1 [Example 2-5]
IC50 (rat EP4 receptor): 1.3 nM

CC(C)NC(=O)c1ccc2c(c1)[C@]1(CCO2)C[C@H]1C(=O)Nc1cc(C#N)ccc1CCCC(=O)O [Example 2-13, 4-[4-cyano-2-({[(2′R,4S)-6-(isopropylcarbamoyl)-2,3-dihydrospiro[chromene-4,1′-cyclopropan]-2′-yl]carbonyl}amino)phenyl]butanoic acid]
tumor growth (tumor volume, FIG. 3) [2]: inhibited the tumor growth alone
tumor growth (tumor volume, FIG. 4) [3]: inhibited the tumor growth alone
tumor growth (tumor volume, FIG. 5) [4]: inhibited the tumor growth alone
Cases of Disappearance of Tumor/Cases ([5]; Example 2-13 3 mg/kg orally twice a day to day 28, anti-mouse PD-1 antibody i.p. 20 mg/kg day 7, 10 mg/kg day 13 and 19): 0/10
tumor growth (tumor volume, FIG. 1) ([5]; Example 2-13 3 mg/kg orally, anti-mouse PD-1 antibody i.p. 20 mg/kg then 10 mg/kg): inhibited the tumor growth alone
